Where a name gives a salt, the structure may show the parent alone.
Legend:
[1] = system: C. albicans ON47; assay: MBC/MFC determination; assay type: cell-based, Candida albicans; conditions: alone
Protocol: (§1) An assay was made using a minimum inhibitory concentration (MIC) and minimum bactericidal concentration (MBC) and minimum fungicidal concentration (MFC) determination. The MIC was determined by the micro broth dilution method in 96-well plates. Serial two-fold dilutions of tetrasodium EDTA (from 2% to 0.015%), ethanol (from 50% to 0.1%) and chlorhexidine HCl (from 100 μg/mL to 0.025 μg/mL) were prepared in MH broth with a final volume of 90 μL per well. A 10 μL containing 1×10^5 bacterial cells or 2×10^3 fungal cells were added to each well. The inoculated plates were covered with a lid, sealed with Parafilm, and incubated for 24 h at 37° C. with slight rocking on a tilting platform shaker. After incubation, the optical density at 600 nm (OD 600) of the cultures in each well was measured using an xMark™ Microplate Absorbance Spectrophotometer (Bio-Rad). […] MBCs and MFCs were determined by transferring 100 μL from each well with no apparent growth onto appropriate agar plates, followed by incubation for 24 h at 37° C.

[2] = system: MRSA ON184; assay: Checkerboard, FMCI; assay type: cell-based, S. aureus; conditions: for microbicidal concentration in combination: EDTA + ethanol
Protocol: as §1
(§2) A fourth composition and solution included tetrasodium EDTA with ethanol or chlorhexidine HCl. This fourth composition and solution were created using checkerboard titration methods using micro broth dilution in 96-well microtiter plates. The concentrations of antimicrobials used were based on previously determined MIC values. Briefly, 200 μL, of two-fold dilutions of tetrasodium EDTA and ethanol or chlorhexidine HCl were prepared in MH or MH II broth with standardized cell suspension. […] Microtiter plates were incubated at 37° C. for 24 h, and the results were analyzed. Each test was performed in duplicate and included a growth control without adding any antimicrobials.

[3] = system: Candida albicans SK4b; assay: Checkerboard, FMCI; assay type: cell-based; conditions: for microbicidal concentration in combination: EDTA + ethanol
Protocol: as §1, §2

[4] = system: Escherichia coli ON29; assay: Checkerboard, FMCI; assay type: cell-based; conditions: for microbicidal concentration in combination: EDTA + ethanol
Protocol: as §1, §2

[5] = system: Proteus mirabilis ON153; assay: Checkerboard, FMCI; assay type: cell-based; conditions: for microbicidal concentration in combination: EDTA + ethanol
Protocol: as §1, §2

[6] = system: Pseudomonas aeruginosa SK1; assay: Checkerboard, FMCI; assay type: cell-based; conditions: for microbicidal concentration in combination: EDTA + ethanol
Protocol: as §1, §2

[7] = system: Serratia marcescens SK2; assay: Checkerboard, FMCI; assay type: cell-based; conditions: for microbicidal concentration in combination: EDTA + ethanol
Protocol: as §1, §2

[8] = system: Staphylococcus aureus ON89; assay: Checkerboard, FMCI; assay type: cell-based; conditions: for microbicidal concentration in combination: EDTA + ethanol
Protocol: as §1, §2

[9] = system: Staphylococcus epidermidis ON170; assay: Checkerboard, FMCI; assay type: cell-based; conditions: for microbicidal concentration in combination: EDTA + ethanol
Protocol: as §1, §2

[10] = system: Stenotrophomonas maltophilia ON17; assay: Checkerboard, FMCI; assay type: cell-based; conditions: for microbicidal concentration in combination: EDTA + ethanol
Protocol: as §1, §2

[11] = system: Candida albicans SK4b; assay: MBEC assay, 48-h biofilm, 24 h exposure; assay type: cell-based
Protocol: (§3) A biofilm cultivation cell composition was provided. This fifth composition was created using an MBEC Assay® biofilm inoculator, consisting of a polystyrene lid with 96 downward-protruding pegs and a corresponding base used to grow biofilms. A standardized inoculum was diluted in an appropriate biofilm growth medium to achieve a viable cell count of 1.5×10^6 CFU/mL of bacterial cells or 5×10^5 CFU/mL of fungal cells. Then, 150 μL of this inoculum was transferred into each appropriate well, and the peg lids were inserted into the microtiter plates. The plates were sealed with Parafilm and were incubated at optimum temperature for 48 h with slight rocking for bacteria and shaking at 200 rpm for fungal strains. After incubation, the peg lid was removed from the base and rinsed twice with sterile phosphate-buffered saline (PBS) for 2 min to remove loosely attached non-sessile cells. Before the antimicrobial challenge, the pegs in column 1 (n=8) were considered the biofilm growth control; these pegs were removed from the lids, placed into 200 μL of recovery medium, and analyzed for starting biofilm cell numbers as described below. The rinsed pegs were placed into new 96-well plates containing two-fold dilutions of antimicrobials such as tetrasodium EDTA (4%-0.0125%), ethanol (100%-0.2%), and chlorhexidine HCl (100 μg/mL-0.4 μg/mL) in 200 μL of suitable biofilm growth medium per well and incubated at optimum temperature for 24 h. After the antimicrobial challenge, the pegs were rinsed twice with sterile PBS for 2 min and placed into a new 96-well plate containing 200 μL of recovery medium. The recovery plates were sealed with Parafilm, and biofilm cells were dislodged from the pegs by sonication for 30 min with a Branson 3510 bath sonicator. The biofilm cells in the recovery medium were serially diluted, and a drop dilution assay was performed to enumerate the viable cells. MBEC values were determined as the minimum concentration of antimicrobials that yielded a viable cell count at or lower than the 125 CFU/mL detection limit.

[12] = system: Escherichia coli SK2; assay: MBEC assay, 48-h biofilm, 24 h exposure; assay type: cell-based
Protocol: as §3

[13] = system: Proteus mirabilis ON153; assay: MBEC assay, 48-h biofilm, 24 h exposure; assay type: cell-based
Protocol: as §3

[14] = system: Pseudomonas aeruginosa SK1; assay: MBEC assay, 48-h biofilm, 24 h exposure; assay type: cell-based
Protocol: as §3

[15] = system: Staphylococcus aureus ON89; assay: MBEC assay, 48-h biofilm, 24 h exposure; assay type: cell-based
Protocol: as §3

[16] = system: Staphylococcus epidermidis SK9; assay: MBEC assay, 48-h biofilm, 24 h exposure; assay type: cell-based
Protocol: as §3

[17] = system: C. albicans ON47; assay: MBEC assay, 48-h biofilm, 24 h exposure; assay type: cell-based, Candida albicans
Protocol: as §3

[18] = system: MRSA ON184; assay: FBEC index, checkerboard on biofilms; assay type: cell-based, S. aureus; conditions: for biofilm eradication concentration in combination (FBEC): EDTA + ethanol
Protocol: (§4) In step (4), microtiter plates are incubated at 37° C. for 24 h. then (6), after incubation, the bacterial and fungal cells were dislodged from the pegs into the recovery medium described above.
(§5) Three 10-μL aliquots, for a total of 30 μL from each well of recovery medium, were spotted on MH agar plates and incubated for 24 h at 37° C. […] The FBEC determination is a modification of the FICI.

[19] = system: Pseudomonas aeruginosa SK1; assay: FBEC index, checkerboard on biofilms; assay type: cell-based; conditions: for biofilm eradication concentration in combination (FBEC): EDTA + ethanol
Protocol: as §4, §5

[20] = system: Proteus mirabilis ON153; assay: FBEC index, checkerboard on biofilms; assay type: cell-based; conditions: for biofilm eradication concentration in combination (FBEC): EDTA + ethanol
Protocol: as §4, §5

## [H]/N=C(\N/C(=N/[H])NCCCCCCNC(=N)NC(=N)Nc1ccc(Cl)cc1)Nc1ccc(Cl)cc1 [Chlorhexidine HCl, 1,6-bis(4′-chlorophenylbiguanide) hexane]
[1]
  MBC/MFC: 3.125 µg/mL
[2]; EDTA + chlorhexidine HCl
  Chlorhexidine HCl microbicidal concentration in combination: 0.4 µg/mL
[3]; EDTA + chlorhexidine HCl
  Chlorhexidine HCl microbicidal concentration in combination: 0.8 µg/mL
[4]; EDTA + chlorhexidine HCl
  Chlorhexidine HCl microbicidal concentration in combination: 0.2 µg/mL
[5]; EDTA + chlorhexidine HCl
  Chlorhexidine HCl microbicidal concentration in combination: 1.6 µg/mL
[6]; EDTA + chlorhexidine HCl
  Chlorhexidine HCl microbicidal concentration in combination: 1.6 µg/mL
[7]; EDTA + chlorhexidine HCl
  Chlorhexidine HCl microbicidal concentration in combination: 1.6 µg/mL
[8]; EDTA + chlorhexidine HCl
  Chlorhexidine HCl microbicidal concentration in combination: 0.2 µg/mL
[9]; EDTA + chlorhexidine HCl
  Chlorhexidine HCl microbicidal concentration in combination: 0.4 µg/mL
[10]; EDTA + chlorhexidine HCl
  Chlorhexidine HCl microbicidal concentration in combination: 0.4 µg/mL
[11]
  MBEC: 50 µg/mL
[12]
  MBEC: 50 µg/mL
[13]
  MBEC: 100 µg/mL
[14]
  MBEC: 100 µg/mL
[15]
  MBEC: 100 µg/mL
[16]
  MBEC: 25 µg/mL
[17]
  MBEC: 25 µg/mL
[18]; EDTA + chlorhexidine HCl
  Chlorhexidine HCl biofilm eradication concentration in combination (FBEC): 6.25 µg/mL
[19]; EDTA + chlorhexidine HCl
  Chlorhexidine HCl biofilm eradication concentration in combination (FBEC): 3.125 µg/mL
[20]; EDTA + chlorhexidine HCl
  Chlorhexidine HCl biofilm eradication concentration in combination (FBEC): 3.125 µg/mL

## O=C([O-])CN(CCN(CC(=O)[O-])CC(=O)[O-])CC(=O)[O-].[Na+].[Na+].[Na+].[Na+] [EDTA, tetrasodium EDTA]
[1]
  MBC/MFC: 1 % w/v
[2]; EDTA + chlorhexidine HCl
  EDTA microbicidal concentration in combination: 0.125 % w/v
[2]
  microbicidal concentration in combination: 0.031 % w/v
[3]; EDTA + chlorhexidine HCl
  EDTA microbicidal concentration in combination: 0.125 % w/v
[3]
  microbicidal concentration in combination: 0.25 % w/v
[4]; EDTA + chlorhexidine HCl
  EDTA microbicidal concentration in combination: 0.008 % w/v
[4]
  microbicidal concentration in combination: 0.25 % w/v
[5]; EDTA + chlorhexidine HCl
  EDTA microbicidal concentration in combination: 0.125 % w/v
[5]
  microbicidal concentration in combination: 0.063 % w/v
[6]; EDTA + chlorhexidine HCl
  EDTA microbicidal concentration in combination: 0.031 % w/v
[6]
  microbicidal concentration in combination: 0.031 % w/v
[7]; EDTA + chlorhexidine HCl
  EDTA microbicidal concentration in combination: 0.125 % w/v
[7]
  microbicidal concentration in combination: 0.25 % w/v
[8]; EDTA + chlorhexidine HCl
  EDTA microbicidal concentration in combination: 0.008 % w/v
[8]
  microbicidal concentration in combination: 0.25 % w/v
[9]; EDTA + chlorhexidine HCl
  EDTA microbicidal concentration in combination: 0.25 % w/v
[9]
  microbicidal concentration in combination: 0.031 % w/v
[10]; EDTA + chlorhexidine HCl
  EDTA microbicidal concentration in combination: 0.031 % w/v
[10]
  microbicidal concentration in combination: 0.125 % w/v
[11]
  MBEC: 1 % w/v
[12]
  MBEC: 2 % w/v
[13]
  MBEC: 4 % w/v
[14]
  MBEC: 4 % w/v
[15]
  MBEC: 4 % w/v
[16]
  MBEC: 2 % w/v
[17]
  MBEC: 1 % w/v
[18]; EDTA + chlorhexidine HCl
  EDTA biofilm eradication concentration in combination (FBEC): 0.031 % w/v
[18]
  biofilm eradication concentration in combination (FBEC): 0.063 % w/v
[19]; EDTA + chlorhexidine HCl
  EDTA biofilm eradication concentration in combination (FBEC): 0.25 % w/v
[19]
  biofilm eradication concentration in combination (FBEC): 0.125 % w/v
[20]; EDTA + chlorhexidine HCl
  EDTA biofilm eradication concentration in combination (FBEC): 0.125 % w/v
[20]
  biofilm eradication concentration in combination (FBEC): 0.125 % w/v

## CCO [Ethanol, ethanol]
[1]
  MBC/MFC: 6.25 % w/v
[2]
  microbicidal concentration in combination: 3.125 % w/v
[3]
  microbicidal concentration in combination: 3.125 % w/v
[4]
  microbicidal concentration in combination: 6.25 % w/v
[5]
  microbicidal concentration in combination: 6.25 % w/v
[6]
  microbicidal concentration in combination: 6.25 % w/v
[7]
  microbicidal concentration in combination: 6.25 % w/v
[8]
  microbicidal concentration in combination: 3.125 % w/v
[9]
  microbicidal concentration in combination: 1.6 % w/v
[10]
  microbicidal concentration in combination: 1.6 % w/v
[11]
  MBEC: 12.5 % w/v
[12]
  MBEC: 12.5 % w/v
[13]
  MBEC: 50 % w/v
[14]
  MBEC: 12.5 % w/v
[15]
  MBEC: 12.5 % w/v
[16]
  MBEC: 12.5 % w/v
[17]
  MBEC: 12.5 % w/v
[18]
  biofilm eradication concentration in combination (FBEC): 1.6 % w/v
[19]
  biofilm eradication concentration in combination (FBEC): 3.125 % w/v
[20]
  biofilm eradication concentration in combination (FBEC): 6.25 % w/v
